The values that follow come from paper PMC6155576, “Anti-Neuroinflammatory ent-Kaurane Diterpenoids from Pteris multifida Roots” (Molecules : A Journal of Synthetic Chemistry and Natural …, 2016).

Each structure is given as a SMILES string.

The term viability denotes a read-out of living cells in per cent, often relative to untreated cells. A low value points to a greater loss of cells.

Series [1] deals with NO production in LPS-activated BV-2 cells. The series is described as follows: NO production assay (Griess reagent) in LPS-activated BV-2 cells. Type of series: cell-based. The following applies: Mus musculus; LPS-stimulated BV-2 cells; samples 1 h before 100 ng/mL LPS, 24 h incubation; read-out: IC50, concentration that caused 50% inhibition of NO production. The protocol:
(§1) The BV-2 mouse microglial cells were generously provided by Dr. Sun Yeou Kim at Kyunghee University (Suwon, Korea). The cells were maintained in DMEM containing 10% FBS with 1% PS at 37 °C in a humidified atmosphere of 95% air and 5% CO2. All tested fractions and samples were dissolved in DMSO (final concentration in cultures ≤0.1%).
(§2) To evaluate NO production, we seeded BV-2 cells in 96-well plates (4 × 10^5 cells/mL) for 24 h and then treated them with various concentrations of the samples for 1 h before exposure to 100 ng/mL of LPS. After the 24 h incubation, the nitrite in the culture media was measured to assess NO production in the BV-2 cells with the Griess reagent (1% sulfanilamide and 0.1% naphtylethylenediamine dihydrochloride in 2% phosphoric acid). In 96-well plates, 100 μL of sample aliquots were mixed with 100 μL of Griess reagent and incubated at room temperature for 15 min. The absorbance at 550 nm was measured on a microplate reader. The concentration was determined with a nitrite standard curve. Cell viability was assessed by the MTT assay. After exposing the cells to 2 mg/mL MTT for 2 h, the absorbance was measured by an ELISA plate reader at 562 nm.
Background: Nitrite, measured by Griess reagent, commonly stands in for NO production.

Series [2] in a line: Cell viability by MTT assay. The format is cell-based, mouse. The settings on record: mouse, BV-2 microglial cells; MTT assay after treatment with 100 μM of each compound for 24 h; mean ± SD. The protocol:
as §1, §2
For orientation: Tetrazolium assays rely on reduction of a dye to a coloured formazan, in cell work by metabolically active cells.

For another series, the system named is BV-2 cells. In words: Cell viability by MTT assay. The format is cell-based, mouse. The settings on record: BV-2 cells, result in words. The protocol: as §1, §2
The test system of series [3] is cyclooxygenase-2 (COX-2) protein expression. In words: Western blot of COX-2 expression in LPS-activated BV-2 microglia. Type of series: cell-based, mouse. The settings on record: result in words. As to the method:
Cells were harvested and lysed with radioimmunoprecipitation (RIPA) buffer (Bio-Rad, Hercules, CA USA). Cell lysates were centrifuged, and the supernatant was collected. The protein concentration was determined by protein assay reagents (Bio-Rad). The proteins were separated onto 10% SDS-polyacrylamide gel and transferred to polyvinylidene fluoride (PVDF) membrane. The membranes were blocked with 5% non-fat dry milk in Tris-buffered saline with 0.1% Tween-20 (TBS-T) buffer for 1 h at room temperature and then incubated with primary antibodies in TBS-T buffer containing 1% non-fat dry milk overnight at 4 °C. The membranes were washed with TBS-T buffer and incubated with goat anti-rabbit or anti-mouse horseradish peroxidase-conjugated IgG secondary antibodies from Santa Cruz Biotechnology (Santa Cruz, CA, USA) for 2 h. The membranes were washed with TBS-T buffer, and the antigen-antibody complex was detected with an enhanced chemiluminescence detection system (GE Healthcare, Milwaukee, MI, USA).
A general note: A western blot detects proteins with antibodies after separation by electrophoresis.

In the next series the test system is PGE2. In words: PGE2 ELISA in LPS-activated BV-2 microglia. The format is cell-based, mouse. The following applies: pre-treatment, dose-dependent, result in words. The protocol:
(§3) BV-2 microglial cells were cultured in 96-well plates, preincubated for 30 min. with different concentrations of compounds 1 and 7 and then stimulated for 24 h with LPS (Sigma-Aldrich Co.). Supernatant from the culture (100 μL) was collected to determine the concentration of PGE2, TNF-α, IL-1β, and IL-6, respectively, with ELISA kits (TNF-α, Abcam, Cambridge, MA, USA; PGE2, IL-1β, and IL-6, R&D Systems, Minneapolis, MN, USA).

Another series relates to TNF-α. The series is described as follows: TNF-α ELISA in LPS-activated BV-2 microglia. Type of series: cell-based, mouse. The settings on record: pre-treatment, dose-dependent, result in words. As to the method:
as §3

The subject of a further series is IL-1β. In words: IL-1β ELISA in LPS-activated BV-2 microglia. Type of series: cell-based, mouse. The settings on record: pre-treatment, dose-dependent, result in words. As to the method: as §3
Another series has as its system IL-6. In words: IL-6 ELISA in LPS-activated BV-2 microglia. The settings on record: pre-treatment, dose-dependent, result in words. The format is cell-based, mouse. As to the method:
as §3

Regarding `C=C1[C@@H]2CC[C@H]3[C@]4(C)C[C@H](O)CC(C)(C)[C@H]4CC[C@]3(C2)[C@H]1O` [Compound 1, 2β,15α-dihydroxy-ent-kaur-16-ene], the IC50 in series [1] was found to be 13.9 µM. Moreover, in series [2], the viability at 24 h, 100 μM amounted to 90.7 ± 7.3%. In addition, the Cytotoxicity result with BV-2 cells is “without any cytotoxicity”. The “Protein level of COX-2 increased by LPS treatment” value in series [3] is “down-regulated”. Further, the “Level of PGE2” value in the series on PGE2 is “effectively decreased”. In the series with TNF-α, the “Level of TNF-α” value is on record as “effectively decreased”. Moreover, the “Level of IL-1β” value in the series with IL-1β is given as “effectively decreased”. The “Level of IL-6” value in the series with IL-6 was “effectively decreased”.

Consider `C=C1[C@@H]2CC[C@H]3[C@]4(C)C[C@H](O[C@@H]5O[C@H](CO)[C@@H](O)[C@H](O)[C@H]5O)CC(C)(C)[C@H]4CC[C@]3(C2)[C@H]1O` [Compound 2, creticoside A], for which the IC50 in series [1] was determined as 92 µM. In series [2], this compound yielded a viability at 24 h, 100 μM of 95.7 ± 4%.

Turning to `C=C1[C@@H]2CC[C@H]3[C@]4(C)C[C@H](O)C[C@](C)(CO)[C@H]4CC[C@]3(C2)[C@H]1O` [Compound 3, pterokaurane M1], the IC50 in series [1] is 84 µM. Also, in series [2], the viability at 24 h, 100 μM was found to be 87.7 ± 2.9%.

Take `C=C1[C@@H]2CC[C@H]3[C@]4(C)C[C@H](O[C@@H]5O[C@H](CO)[C@@H](O)[C@H](O)[C@H]5O)C[C@](C)(CO)[C@H]4CC[C@]3(C2)[C@H]1O` [Compound 4, pterokaurane M1 2-O-β-D-glucopyranoside]: in series [1], the IC50 worked out at 148 µM. This compound registered a viability at 24 h, 100 μM in series [2] of 90.5 ± 10.2%.

For `C=C1[C@@H]2CC[C@H]3[C@]4(C)C[C@H](O[C@@H]5O[C@H](CO)[C@@H](O)[C@H](O)[C@H]5O)C[C@@](C)(CO)[C@H]4CC[C@]3(C2)[C@H]1O` [Compound 5, 2β,15α,19-trihydroxy-ent-kaur-16-ene 2-O-β-D-gluco-pyranoside], the IC50 in series [1] worked out at 148 µM. The viability at 24 h, 100 μM in series [2] was 73.6 ± 2.9%.

Consider `C=C1[C@@H]2CC[C@H]3[C@]4(C)C[C@H](O)CC(C)(C)[C@H]4[C@H](O)C[C@]3(C2)[C@H]1O` [Compound 6, 2β,6β,15α-trihydroxy-ent-kaur-16-ene], for which the IC50 in series [1] is 137 µM. The same compound came in with a viability at 24 h, 100 μM in series [2] of 85.9 ± 0.1%.

With `C=C1[C@@H]2CC[C@H]3[C@]4(C)C[C@H](O)CC(C)(C)[C@H]4CC[C@]3([C@@H]2O)[C@H]1O` [Compound 7, pterokaurane P1], in series [1], the IC50 was determined as 10.8 µM. The viability at 24 h, 100 μM in series [2] is 88.7 ± 2.4%. The Cytotoxicity result in the series on BV-2 cells is on record as “without any cytotoxicity”. For the same compound, the “Protein level of COX-2 increased by LPS treatment” value in series [3] is “down-regulated”. Further, the “Level of PGE2” value in the series with PGE2 is given as “effectively decreased”. For the same compound, the “Level of TNF-α” value in the series on TNF-α is reported as “effectively decreased”. In addition, the “Level of IL-1β” value in the series with IL-1β is recorded as “effectively decreased”. In addition, in the series on IL-6, the “Level of IL-6” value is reported as “effectively decreased”.

For the compound `C=C1[C@@H]2CC[C@H]3[C@]4(C)C[C@H](O[C@@H]5O[C@H](CO)[C@@H](O)[C@H](O)[C@H]5O)CC(C)(C)[C@H]4CC[C@]3([C@@H]2O)[C@H]1O` [Compound 8, pterokaurane P1 2-O-β-D-glucopyranoside], the IC50 in series [1] came to 101 µM. In addition, the viability at 24 h, 100 μM in series [2] is 91.7 ± 3.7%.

`CC1(C)C[C@@H](O)C[C@]2(C)[C@@H]1CC[C@@]13C[C@@H](CC[C@H]12)[C@](C)(O)C3` [Compound 9, 2β,16α-dihydroxy-ent-kaurane]: in series [1], the IC50 is 122 µM. Moreover, the viability at 24 h, 100 μM in series [2] is 97.5 ± 1.3%.

With `CC1(C)C[C@@H](O[C@@H]2O[C@H](CO)[C@@H](O)[C@H](O)[C@H]2O)C[C@]2(C)[C@@H]1CC[C@@]13C[C@@H](CC[C@H]12)[C@](C)(O[C@@H]1O[C@H](CO)[C@@H](O)[C@H](O)[C@H]1O)C3` [Compound 10, 2β,16α-dihydroxy-ent-kaurane 2,16-di-O-β-D-glucopyranoside], in series [1], the IC50 was found to be 182 µM. In series [2], this compound displayed a viability at 24 h, 100 μM of 88.2 ± 8%.

In the case of `C[C@]1(CO)C[C@@H](O)C[C@]2(C)[C@@H]1CC[C@@]13C[C@@H](CC[C@H]12)[C@](C)(O)C3` [Compound 11, pterokaurane R], the IC50 in series [1] stood at 171 µM. In series [2], this compound showed a viability at 24 h, 100 μM of 83.2 ± 10.2%.

Regarding `CC1(C)C[C@@H](O[C@@H]2O[C@H](CO)[C@@H](O)[C@H](O)[C@H]2O)C[C@]2(C)[C@@H]1CC[C@@]13C[C@@H](CC[C@H]12)[C@@](O)(CO)C3` [Compound 12, 2β,16α,17-trihydroxy-ent-kaurane 2-O-β-D-glucopyranoside], the IC50 in series [1] was found to be 114 µM. Besides, the viability at 24 h, 100 μM in series [2] stood at 93.6 ± 8.3%.

For the compound `COC(=O)[C@@H](N)CCCNC(N)=N[N+](=O)[O-]` [L-NAME, Nω-nitro-L-arginine methyl ester, reference compound], the IC50 in series [1] is 53.5 µM. The compound also gave a viability at 24 h, 100 μM in series [2] of 100 ± 5%.
